Publication PMC9378659, “Design and synthesis of new N-thioacylated ciprofloxacin derivatives as urease inhibitors with potential antibacterial activity” (Scientific Reports, 2022)
Converted amounts (≈) assume the structure as drawn. Read-outs that look alike come from different tables or passages of the source.

Tests used:
[1] = tested on: Staphylococcus epidermidis ATCC 12228; test: Antibacterial activity, agar dilution MIC; type: cell-based; conditions: ATCC12228, read-out: MIC S. epidermidis
Description: (§1) Antibacterial activity of the synthesized compounds 3a–n were determined according to the agar dilution methods for Gram-positive bacteria strains (Staphylococcus aureus ATCC 6538 and Staphylococcus epidermidis ATCC 12228) and Gram-negative bacteria strains (Escherichia coli ATCC 8739 and Pseudomonas aeruginosa ATCC 9027).
(§2) Two Gram-positive bacteria strains (Staphylococcus aureus ATCC 6538 and Staphylococcus epidermidis ATCC 12228) and two Gram-negative bacteria strains (Escherichia coli ATCC 8739 and Pseudomonas aeruginosa ATCC 9027) were used for evaluation of the synthesized N-thioacylated ciprofloxacin derivatives 3a–n. All the strains were obtained from Iranian Microbial Collection (Pasteur Institute of Iran, Tehran, Iran). The antibacterial activity of the synthesized compounds was determined according to the agar dilution methods of the National Committee for Clinical Laboratory Standards[43].
(§3) Briefly, a series of twofold dilutions of test compounds 3a–n and ciprofloxacin, the standard antibiotic, were dissolved in 1 ml of DMSO. Each concentration was added to molten test agars that have been allowed to equilibrate in a water bath to 55 °C, to attain the concentrations ranging from 100 to 0.003 µg/ml. To compare the MIC values; the standard antibiotic, ciprofloxacin was also diluted in the same manner.
(§4) To prepare the inoculums suspensions, the bacteria were cultured on Muller-Hinton agar 12–16 h before the test. On the day of the experiment, a single colony of each bacteria was suspended Muller–Hinton broth to reach the turbidity of 0.5 McFarland standard (0.08–0.1 absorbance at 600 nm), which is approximately equivalent to 1.5 × 10^8 CFU/ml. The suspensions were then diluted at 1:10 in sterile saline to obtain a concentration of 1.5 × 10^7 CFU/ml. The plates were dot inoculated with 2 ul of each bacterial suspension and incubated at 37 °C overnight. The MIC was also defined as the lowest concentration of test compounds that completely prevents the growth of bacteria on agar plate following overnight incubation.

[2] = tested on: Pseudomonas aeruginosa ATCC 9027; test: Antibacterial activity, agar dilution MIC; type: cell-based; conditions: ATCC9027, read-out: MIC P. aeruginosa
Description: as §1, §2, §3, §4

[3] = tested on: Escherichia coli ATCC 8739; test: Antibacterial activity, agar dilution MIC; type: cell-based; conditions: ATCC8739
Description: as §1, §2, §3, §4

[4] = tested on: Staphylococcus aureus ATCC 6538; test: Antibacterial activity, agar dilution MIC; type: cell-based; conditions: ATCC6538, read-out: MIC S. aureus
Description: as §1, §2, §3, §4

[5] = biological target: T1, jack bean urease (JBU; EC 3.5.1.5) (Canavalia ensiformis, UniProt P07374); test: biochemical; conditions: JB urease, mean ± SEM, at least three experiments
T1 construct: purchased Sigma-Aldrich
T1 sequence (P07374 whole entry, looked up): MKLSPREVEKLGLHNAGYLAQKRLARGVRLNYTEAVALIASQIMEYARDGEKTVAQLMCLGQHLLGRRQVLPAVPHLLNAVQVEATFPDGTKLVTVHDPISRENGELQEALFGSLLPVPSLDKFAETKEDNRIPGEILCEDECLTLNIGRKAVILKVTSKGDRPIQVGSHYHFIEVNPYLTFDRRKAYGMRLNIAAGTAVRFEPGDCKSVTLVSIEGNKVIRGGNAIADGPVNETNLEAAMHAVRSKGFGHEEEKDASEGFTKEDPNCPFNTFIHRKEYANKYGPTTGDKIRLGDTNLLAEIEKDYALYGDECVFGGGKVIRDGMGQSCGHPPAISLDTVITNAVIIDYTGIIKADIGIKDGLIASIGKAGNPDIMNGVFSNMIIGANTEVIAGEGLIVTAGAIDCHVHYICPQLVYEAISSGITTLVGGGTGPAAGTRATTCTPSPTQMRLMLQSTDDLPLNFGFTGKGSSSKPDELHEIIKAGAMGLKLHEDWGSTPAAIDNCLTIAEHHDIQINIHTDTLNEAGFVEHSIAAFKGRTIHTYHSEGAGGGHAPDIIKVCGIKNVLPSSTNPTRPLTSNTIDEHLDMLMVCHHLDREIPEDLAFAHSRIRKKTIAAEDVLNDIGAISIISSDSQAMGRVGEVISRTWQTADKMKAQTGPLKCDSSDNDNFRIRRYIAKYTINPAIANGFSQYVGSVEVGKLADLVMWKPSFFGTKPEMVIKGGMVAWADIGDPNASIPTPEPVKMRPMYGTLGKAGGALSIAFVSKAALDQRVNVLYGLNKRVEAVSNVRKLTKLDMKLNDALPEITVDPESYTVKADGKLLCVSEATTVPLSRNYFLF
Description: All chemicals and jack bean urease (JBU; EC 3.5.1.5) were purchased from Sigma-Aldrich. The urease inhibitory activity of N-thioacylated ciprofloxacin derivatives 3a–n was determined by Berthelot colorimetric method. The ammonia (NH3) produced by the urease enzyme along with indicator solutions including hypochlorite (OCl^−) and phenol make a blue-colored indophenol complex and the absorbance was measured at 625 nm by a Synergy H1 Hybrid multimode microplate reader (BioTek, Winooski, VT, USA).
Assay completed in two steps, at the first step the enzyme cocktail for each compound consisted of 50 µl urease enzyme (3 mg/ml in phosphate buffer, pH 7.4), 100 µl of test compound at different concentrations (0–10 mg/ml, in phosphate buffer, pH 7.4) and 850 µl urea solution (30 mM, in phosphate buffer, pH 7.4). This mixture was incubated at 37 °C for 30 min.
For the second step, each 100 µl of the above mixture was added to 500 µl of indicator solutions A (0.5 g phenol and 25 mg sodium nitroprusside in 500 ml distilled water) and 500 µl of B (2.5 g sodium hydroxide and 4.2 ml sodium hypochlorite (5%) in 500 ml distilled water) and further incubated at 37 °C for 30 min. The absorbance of blue-colored indophenol of each cell is related to the percentage of enzyme inhibition using the following equation: I%=1-T/C×100.
In this equation, I (%) is assigned to the percent of enzyme inhibition. (T) is assigned to the absorbance of our test compounds and C is assigned to the negative control absorbance which is the absorbance of our cocktail without any inhibitor compound. Thiourea and hydroxyurea were used as the positive controls. The IC50 values of test compounds were calculated using GraphPad PRISM 8.0 software (GraphPad, San Diego, CA, USA).

jack bean urease = tested on: jack bean urease; design: method as in PMID 28574649; conditions: read-out: IC50 against urease; cited from earlier work
urease = tested on: urease; design: method as in PMID 34179623; conditions: read-out: IC50 against urease; cited from earlier work
C. neoformans (H99) = test: Anti-ureolytic assay, colorimetric microdilution in urea broth; type: cell-based; conditions: Cryptococcus neoformans, urea broth pH 6
Description: (§5) The colorimetric microdilution technique using urea broth media (Merck, supplemented with glucose; pH 6 for C. neoformans) was used to determine the ureolytic activity of C. neoformans (H99), and clinical isolate of P. vulgaris treated with 3n according to previously reported procedures[18],[37].

[6] = tested on: clinical isolate of P. vulgaris; test: as above; type: cell-based; conditions: Proteus vulgaris
Description: as §5

[7] = IC50 urease inhibitory activity
[8] = read-out: IC50 urease inhibitory activity

| Structure (SMILES) | melting point [°C] | MIC [1] [µg/mL] | MIC [2] [µg/mL] | MIC [3] [µg/mL] | MIC [4] [µg/mL] | IC50 [5, 7] [µM] | IC50 (jack bean urease) [µM] | IC50 [5, 8] [µM] | IC50 (urease) [µM] | IC50 (C. neoformans (H99)) [µg/mL] | IC50 [6] [µg/mL] |
| --- | --- | --- | --- | --- | --- | --- | --- | --- | --- | --- | --- |
| O=C(O)c1cn(C2CC2)c2cc(N3CCN(C(=S)c4cccc(O)c4)CC3)c(F)cc2c1=O [Compound 3j, 1-Cyclopropyl-6-fluoro-7-(4-(3-hydroxyphenylcarbonothioyl)piperazin-1-yl)-4-oxo-1,4-dihydroquinoline-3-carboxylic acid] | > 250 | 0.048 (≈ 0.103 µM) | 0.781 (≈ 1.67 µM) | 0.024 (≈ 0.0513 µM) | 0.097 (≈ 0.207 µM) | 19.6 ± 0.17 | – | – | – | – | – |
| Cc1ccc(C(=S)N2CCN(c3cc4c(cc3F)c(=O)c(C(=O)O)cn4C3CC3)CC2)cc1 [Compound 3c, 1-Cyclopropyl-6-fluoro-7-(4-(4-methylphenylcarbonothioyl)piperazin-1-yl)-4-oxo-1,4-dihydroquinoline-3-carboxylic acid] | > 250 | 0.024 (≈ 0.0516 µM) | 3.12 (≈ 6.71 µM) | 0.097 (≈ 0.208 µM) | 0.048 (≈ 0.103 µM) | 20.63 ± 0.19 | – | – | – | – | – |
| NC(=S)N1N=C(c2cc3ccccc3oc2=O)CC1c1ccccc1 (centres unmarked) [Compound D] | – | – | – | – | – | – | 0.000358 ± 1.7e-05 | – | – | – | – |
| O=C(O)c1cn(C2CC2)c2cc(N3CCN(C(=S)c4ccccc4)CC3)c(F)cc2c1=O [Compound 3a, 1-Cyclopropyl-6-fluoro-4-oxo-7-(4-(phenylcarbonothioyl)piperazin-1-yl)-1,4 dihydroquinoline-3-carboxylic acid] | > 250 | 0.024 (≈ 0.0532 µM) | 6.25 (≈ 13.8 µM) | 0.048 (≈ 0.106 µM) | 0.048 (≈ 0.106 µM) | 10.61 ± 0.09 | – | – | – | – | – |
| O=C(O)c1cn(C2CC2)c2cc(N3CCNCC3)c(F)cc2c1=O [Ciprofloxacin] | – | 0.048 (≈ 0.145 µM) | 0.048 (≈ 0.145 µM) | < 0.003 | 0.024 (≈ 0.0724 µM) | – | – | – | – | – | – |
| COc1cccc(C(=S)N2CCN(c3cc4c(cc3F)c(=O)c(C(=O)O)cn4C3CC3)CC2)c1 [Compound 3b, 1-Cyclopropyl-6-fluoro-7-(4-(3-methoxyphenylcarbonothioyl)piperazin-1-yl)-4-oxo-1,4-dihydroquinoline-3-carboxylic acid] | > 250 | 0.024 (≈ 0.0498 µM) | 3.12 (≈ 6.49 µM) | 0.097 (≈ 0.201 µM) | 0.048 (≈ 0.0997 µM) | 17.02 ± 0.16 | – | – | – | – | – |
| O=C(O)c1cn(C2CC2)c2cc(N3CCN(C(=S)c4ccc(Cl)cc4)CC3)c(F)cc2c1=O [Compound 3e, 7-(4-(4-Chlorophenylcarbonothioyl)piperazin-1-yl)-1-cyclopropyl-6-fluoro-4-oxo-1,4-dihydroquinoline-3-carboxylic acid] | > 250 | 0.048 (≈ 0.0988 µM) | 0.781 (≈ 1.61 µM) | 0.024 (≈ 0.0494 µM) | 0.048 (≈ 0.0988 µM) | 6.55 ± 0.05 | – | – | – | – | – |
| O=C(O)c1cn(C2CC2)c2cc(N3CCN(C(=S)c4ccccc4F)CC3)c(F)cc2c1=O [Compound 3i, 1-Cyclopropyl-6-fluoro-7-(4-(2-fluorophenylcarbonothioyl)piperazin-1-yl)-4-oxo-1,4-dihydroquinoline-3-carboxylic acid] | > 250 | 0.024 (≈ 0.0511 µM) | 2.5 (≈ 5.32 µM) | 0.0195 (≈ 0.0415 µM) | 0.024 (≈ 0.0511 µM) | 15 ± 0.16 | – | – | – | – | – |
| NC(=O)NO [Hydroxyurea, reference compound] | – | – | – | – | – | – | – | 100 ± 2.5 | – | – | – |
| NC(N)=S [Thiourea] | – | – | – | – | – | – | 4.72 ± 0.174 | 23 ± 0.84 | 21.7 ± 0.34 | – | – |
| O=C(O)c1cn(C2CC2)c2cc(N3CCN(C(=S)c4cccc(Oc5ccccc5)c4)CC3)c(F)cc2c1=O [Compound 3k, 1-Cyclopropyl-6-fluoro-4-oxo-7-(4-(3-phenoxyphenylcarbonothioyl)piperazin-1-yl)-1,4-dihydroquinoline-3-carboxylic acid] | > 250 | 0.39 (≈ 0.717 µM) | 3.12 (≈ 5.75 µM) | 0.097 (≈ 0.178 µM) | 0.39 (≈ 0.717 µM) | 32.49 ± 0.32 | – | – | – | – | – |
| O=C(O)c1cn(C2CC2)c2cc(N3CCN(C(=S)c4cccc(F)c4)CC3)c(F)cc2c1=O [Compound 3h, 1-Cyclopropyl-6-fluoro-7-(4-(3-fluorophenylcarbonothioyl)piperazin-1-yl)-4-oxo-1,4-dihydroquinoline-3-carboxylic acid] | – | 0.097 (≈ 0.207 µM) | 0.048 (≈ 0.102 µM) | < 0.003 | 0.048 (≈ 0.102 µM) | 4.08 ± 0.03 | – | – | – | – | – |
| COc1ccc(C(=S)N2CCN(c3cc4c(cc3F)c(=O)c(C(=O)O)cn4C3CC3)CC2)cc1 [Compound 3f, 1-Cyclopropyl-6-fluoro-7-(4-(4-methoxyphenylcarbonothioyl)piperazin-1-yl)-4-oxo-1,4-dihydroquinoline-3-carboxylic acid] | > 250 | 0.024 (≈ 0.0498 µM) | 3.12 (≈ 6.49 µM) | 0.097 (≈ 0.201 µM) | 0.024 (≈ 0.0498 µM) | 21.36 ± 0.08 | – | – | – | – | – |
| O=C(O)c1cn(C2CC2)c2cc(N3CCN(C(=S)c4ccc([N+](=O)[O-])cc4)CC3)c(F)cc2c1=O [Compound 3n, 1-Cyclopropyl-6-fluoro-7-(4-(4-nitrophenylcarbonothioyl)piperazin-1-yl)-4-oxo-1,4-dihydroquinoline-3-carboxylic acid] | – | 0.39 (≈ 0.785 µM) | 1.56 (≈ 3.15 µM) | 0.097 (≈ 0.195 µM) | 0.781 (≈ 1.57 µM) | 2.05 ± 0.03 | – | – | – | 5.59 ± 2.38 (≈ 11.3 µM) | 5.72 ± 1.31 (≈ 11.5 µM) |
| O=C(O)c1cn(C2CC2)c2cc(N3CCN(C(=S)c4cccc([N+](=O)[O-])c4)CC3)c(F)cc2c1=O [Compound 3g, 1-Cyclopropyl-6-fluoro-7-(4-(3-nitrophenylcarbonothioyl)piperazin-1-yl)-4-oxo-1,4-dihydroquinoline-3-carboxylic acid] | – | 0.024 (≈ 0.0483 µM) | 0.39 (≈ 0.785 µM) | 0.012 (≈ 0.0242 µM) | 0.024 (≈ 0.0483 µM) | 5.87 ± 0.07 | – | – | – | – | – |
| O=C(O)c1cn(C2CC2)c2cc(N3CCN(C(=S)c4cccc(Cl)c4)CC3)c(F)cc2c1=O [Compound 3m, 7-(4-(3-Chlorophenylcarbonothioyl)piperazin-1-yl)-1-cyclopropyl-6-fluoro-4-oxo-1,4-dihydroquinoline-3-carboxylic acid] | > 250 | 0.097 (≈ 0.2 µM) | 6.25 (≈ 12.9 µM) | 0.048 (≈ 0.0988 µM) | 0.048 (≈ 0.0988 µM) | 12.2 ± 0.24 | – | – | – | – | – |
| O=C(O)c1cn(C2CC2)c2cc(N3CCN(C(=S)c4ccc(F)cc4)CC3)c(F)cc2c1=O [Compound 3d, 1-Cyclopropyl-6-fluoro-7-(4-(4-fluorophenylcarbonothioyl)piperazin-1-yl)-4-oxo-1,4-dihydroquinoline-3-carboxylic acid] | > 250 | 0.048 (≈ 0.102 µM) | 0.781 (≈ 1.66 µM) | 0.097 (≈ 0.207 µM) | 0.097 (≈ 0.207 µM) | 2.94 ± 0.04 | – | – | – | – | – |
| O=C(O)c1cn(C2CC2)c2cc(N3CCN(C(=S)c4ccc(Br)cc4)CC3)c(F)cc2c1=O [Compound 3l, 7-(4-(4-Bromophenylcarbonothioyl)piperazin-1-yl)-1-cyclopropyl-6-fluoro-4-oxo-1,4-dihydroquinoline-3-carboxylic acid] | > 250 | 0.048 (≈ 0.0905 µM) | 0.848 (≈ 1.6 µM) | 0.028 (≈ 0.0528 µM) | 0.048 (≈ 0.0905 µM) | 8.21 ± 0.06 | – | – | – | – | – |
